Results: patent publication US11752166B2, “Combination therapy for treatment of HCV” (COCRYSTAL PHARMA, INC., priority 2018, dated 2023)

Tested on: HCV GT1b (Con1, HCV-1b) replicon
Assay: HCV GT1b replicon 2-drug combination assay (firefly luciferase, MacSynergy II)
Format: cell-based, Hepatitis C virus
Parameters: Synergy volume / Antagonism volume: unit not given here
Settings: for Antagonism volume / Synergy volume: 3 days, 0.125-8x EC50
Method: Materials: Cells—The HCV GT1b (Con1, HCV-1b) replicon cells were generated and provided by WuXi AppTec. The HCV-1b replicon cells are Huh7 cells stably transfected with the HCV GT1b replicon containing the HCV subgenome, resistance selection gene NEO and reporter gene firefly luciferase.
Software—HCV replicon data was analyzed using MacSynergy™ II software.
Methods: This study was to assess combination effects of the Compound A with other HCV antivirals on HCV replicon replication in the HCV GT1b replicon assay.
The 2-drug combination experiment was designed using a checkboard cross pattern of 7 drug concentrations of each agent, including each agent alone, in triplicate, plated with the Automated Liquid Workstation (Labcyte, Echo555). The concentrations of the test compounds were 0.125, 0.25, 0.5, 1, 2, 4, 8× EC50 values. The EC50 values of the test compounds were determined in a separate HCV GT1b replicon assay. The regimens of the compound combinations are listed in Table 1—where each regimen includes Compound A as the first compound. The final concentration of DMSO in the cell culture medium was 0.5%.
The HCV-1b cells were seeded at a density of 8,000 cells per well in 96-well plates and cultured in DMEM containing 10% FBS at 5% CO2 and 37° C. The replicon cells were treated with the compounds for 3 days.
The antiviral activity of the compounds was determined by monitoring activity of the replicon reporter firefly luciferase using Bright Glo in accordance with the protocol provided by the supplier. The combination indices were calculated using the MacSynergy™ II software. A positive combination index value indicates synergism, and a negative combination index value indicates antagonism.

[1] = 2nd inhibitor (NS3 protease inhibitor table, incl. ribavirin) in combination with Compound A
[2] = 2nd inhibitor (NS5B nucleoside inhibitor) in combination with Compound A
[3] = 2nd inhibitor (NS5A inhibitor) in combination with Compound A

Compound | Combination regimen effect [1] | Antagonism volume [1] | Synergy volume [1] | Combination regimen effect [3] | Antagonism volume [3] | Synergy volume [3] | further results
C=C[C@@H]1C[C@]1(NC(=O)[C@@H]1C[C@@H](Oc2ncc(OC)c3ccc(Cl)cc23)CN1C(=O)[C@@H](NC(=O)OC(C)(C)C)C(C)(C)C)C(=O)NS(=O)(=O)C1CC1 [Asunaprevir] | Additive | −1.32 | 4.9 | – | – | – | –
CNC(=O)c1c(-c2ccc(F)cc2)oc2cc(N(CCCCCOCc3ccc(C(=O)O)cc3)S(C)(=O)=O)c(C3CC3)cc12 [Compound A] | – | – | – | – | – | – | Combination effect (with HCV NS5B nucleoside inhibitors, NS5A inhibitors, NS3 protease inhibitors, NS3 helicase inhibitors, and ribavirin): either additive or synergistic effect
CC(C)OC(=O)[C@@H](C)NP(=O)(OC[C@@H]1O[C@H](n2ccc(NO)nc2=O)[C@@](C)(O)[C@H]1O)Oc1ccccc1 (stereo partly drawn) [Compound B] | – | – | – | – | – | – | Combination regimen effect [2]: Additive; Antagonism volume [2]: 0.00; Synergy volume [2]: 3.30
COC(=O)N[C@H](C(=O)N1C[C@H](SC)C[C@@H]1c1ncc(-c2ccc(-c3ccc(-c4[nH]c([C@@H]5CCCN5C(=O)[C@@H](NC(=O)OC)c5ccccc5)nc4Cl)cc3)cc2)[nH]1)c1ccccc1 [Compound C] | – | – | – | Additive | 0 | 3.57 | –
COC(=O)N[C@H](C(=O)N1CCC[C@H]1c1nc(-c2ccc(-c3ccc(-c4c[nH]c([C@@H]5CCCN5C(=O)[C@@H](NC(=O)OC)C(C)C)n4)cc3)cc2)c[nH]1)C(C)C [Daclatasvir] | – | – | – | – | −3.05 | 33.47 | –
CC(C)(C)[C@@H]1NC(=O)O[C@@H]2CCC[C@H]2OC/C=C/C(F)(F)c2nc3ccccc3nc2O[C@@H]2C[C@@H](C(=O)N[C@]3(C(=O)NS(=O)(=O)C4(C)CC4)C[C@H]3C(F)F)N(C2)C1=O [Glecaprevir] | Minor synergism | 0.00 | 47.37 | – | – | – | –
COC(=O)N[C@H](C(=O)N1CC2(CC2)C[C@H]1c1nc(-c2ccc3c(c2)C(F)(F)c2cc(-c4ccc5[nH]c([C@@H]6[C@H]7CC[C@H](C7)N6C(=O)[C@@H](NC(=O)OC)C(C)C)nc5c4)ccc2-3)c[nH]1)C(C)C [Ledipasvir] | – | – | – | Minor synergy | −1.08 | 38.55 | –
COC(=O)N[C@H](C(=O)N1CCC[C@H]1c1nc2cc([C@H]3CC[C@H](c4cc5nc([C@@H]6CCCN6C(=O)[C@@H](NC(=O)OC)[C@@H](C)OC)[nH]c5cc4F)N3c3cc(F)c(N4CCC(c5ccc(F)cc5)CC4)c(F)c3)c(F)cc2[nH]1)[C@@H](C)OC [Pibrentasvir] | – | – | – | Additive | −24.59 | 5.7 | –
NC(=O)c1ncn([C@@H]2O[C@H](CO)[C@@H](O)[C@H]2O)n1 [Ribavirin] | Additive | −9.76 | 0.24 | – | – | – | –
COc1ccc2c(O[C@@H]3C[C@H]4C(=O)N[C@]5(C(=O)NS(=O)(=O)C6CC6)C[C@H]5/C=C\CCCCN(C)C(=O)[C@@H]4C3)cc(-c3nc(C(C)C)cs3)nc2c1C [Simprevir, Simeprevir] | Additive | 0.00 | 13.39 | – | – | – | –
CC(C)OC(=O)[C@H](C)N[P@](=O)(OC[C@H]1O[C@@H](n2ccc(=O)[nH]c2=O)[C@](C)(F)[C@@H]1O)Oc1ccccc1 [Sofosbuvir] | – | – | – | – | – | – | Combination regimen effect [2]: Additive; Antagonism volume [2]: 0.00; Synergy volume [2]: 9.47
COC[C@H]1C[C@@H](c2nc(-c3ccc4c(c3)COc3cc5c(ccc6nc([C@@H]7CC[C@H](C)N7C(=O)[C@@H](NC(=O)OC)C(C)C)[nH]c65)cc3-4)c[nH]2)N(C(=O)[C@H](NC(=O)OC)c2ccccc2)C1 [Velpatasvir] | – | – | – | Additive | −7.92 | 0.76 | –
